# Test results as given in patent publication US20110160296A1, “PREPARATION OF 6-OXA-8ALPHA-STEROID ESTROGEN ANALOGUES - A NEW GROUP OF UNNATURAL ESTROGENS AND THEIR USE IN MEDICINE” (TOPASS GMBH, priority 2007, published 2011).
# Legend:
# [1] = test system: ovariectomised rats, brain tissue; test: Lipid peroxidation parameters in brain tissue of ovariectomised rats (antioxidant action); format: in vivo; settings: per os in olive oil, single dose of 5 mg per 100 g of body weight the day before euthanasia
# Description: The experimental conditions: compound XVI was given per os in olive oil as a single dose of 5 mg per 100 g of body weight the day before euthanasia. […] Control group of animals were treated using olive oil without steroids.
# Schiff bases contain was calculated in conventional units according to fluorometric data; triene conjugates—in conventional units—according to the spectrophotometer data under wave-length 274 nm.
# ovariectomised rats [2] = test: Effects on serum lipids and liver lipids of ovariectomised rats; format: in vivo, rats (Sprague Dawley)
# Description: (§1) The investigation of biological properties of steroids was carried out on sham operated and ovariectomized rats (Sprague Dawley) under the following conditions: compounds IV, XII, XIV and XV were given in olive oil, daily for 35 days.
# ovariectomised rats [3] = test: Ovariectomized rat assay: body weight, uterus, femur, serum cholesterol and triglycerides; format: in vivo, rats (Sprague Dawley); settings: n = 20
# Description: as §1
# [4] = test system: female mouse-hybrids F1CBAxC57BI6; test: Influence on spleen, antibody-forming cells and thymus of mice after single per os dose; format: in vivo; settings: female mouse-hybrids F1CBAxC57BI6, per os single-dosing administration (5 mg/kg of BW)
# Excerpt: Method is described in the article.
# [5] = Table 2, 0.1 mg/kg intramuscular injection
# [6] = Table 3, 0.2 mg/kg intramuscular injection
# [7] = Table 3, 0.5 mg/kg intramuscular injection
# [8] = Table 5, 0.05 mg/kg of body weight
# [9] = Table 1, 0.5 mg/kg BW in olive oil, daily for 35 days
# [10] = Table 5, 5 mg/kg of body weight in olive oil, daily for 35 days
structure (smiles),measurement,setting,value
COc1ccc2c(c1)O[C@H](C)[C@H]1[C@@H]2CC[C@]2(C)[C@@H](OC(C)=O)CCC[C@@H]12 [Compound XVI],Triene conjugates,[1]; control 0.209 ± 0.022,0.152 ± 0.022 conventional units/mg of phospholipids
same,Klein coefficient,[1]; control 0.70 ± 0.01,0.71 ± 0.05
same,Malonic dialdehyde,[1]; control 1.65 ± 0.14,1.80 ± 0.18 nmol/mg of phospholipids
same,Diene conjugates,[1]; control 12.2 ± 0.7,9.5 ± 1.0 nmol/mg of phospholipids
same,Schiff bases,[1]; control 129 ± 10,96 ± 6 conventional units/mg of phospholipids
"COc1ccc2c(c1)OC[C@H]1[C@@H]2CC[C@]2(C)C(=O)CCC[C@@H]12 [compound XII, 6-Oxa-D-homo-8α-estrone methyl ether]",Liver lipids Cholesterol,ovariectomised rats [2]; [5],2.69 ± 0.06 mg/g
same,Liver lipids Triglycerides,ovariectomised rats [2]; [5],5.21 ± 0.49 mg/g
same,Serum lipids Cholesterol,ovariectomised rats [2]; [5],1.68 ± 0.06 mmol/L
same,Serum lipids Triglycerides,ovariectomised rats [2]; [5],0.42 ± 0.05 mmol/L
same,Liver lipids Cholesterol,ovariectomised rats [2]; [6],2.69 ± 0.06 mg/g
same,Liver lipids Triglycerides,ovariectomised rats [2]; [6],3.72 ± 0.51 mg/g
same,Serum lipids Cholesterol,ovariectomised rats [2]; [6],1.04 ± 0.12 mmol/L
same,Serum lipids Triglycerides,ovariectomised rats [2]; [6],0.85 ± 0.05 mmol/L
same,Liver lipids Cholesterol,ovariectomised rats [2]; [7],2.31 ± 0.06 mg/g
same,Liver lipids Triglycerides,ovariectomised rats [2]; [7],3.17 ± 0.32 mg/g
same,Serum lipids Cholesterol,ovariectomised rats [2]; [7],0.85 ± 0.08 mmol/L
same,Serum lipids Triglycerides,ovariectomised rats [2]; [7],0.94 ± 0.05 mmol/L
same,Liver lipids Cholesterol,"ovariectomised rats [2]; Table 4, 0.2 mg/kg per os",3.45 ± 0.15 mg/g
same,Liver lipids Triglycerides,"ovariectomised rats [2]; Table 4, 0.2 mg/kg per os",7.1 ± 0.6 mg/g
same,Serum lipids Cholesterol,"ovariectomised rats [2]; Table 4, 0.2 mg/kg per os",0.99 ± 0.08 mmol/L
same,Serum lipids Triglycerides,"ovariectomised rats [2]; Table 4, 0.2 mg/kg per os",1.45 ± 0.14 mmol/L
"C#C[C@]1(O)CC[C@H]2[C@@H]3CCc4cc(O)ccc4[C@H]3CC[C@@]21C [EE, 17α-Ethynylestradiol, reference compound]",Change of body weight,"ovariectomised rats [3]; Table 1, 0.1 mg/kg BW",23.0 ± 4.3 g
same,Serum cholesterol,"ovariectomised rats [3]; Table 1, 0.1 mg/kg BW",30.0 ± 1.7 mg/dL
same,Uterus weight index,"ovariectomised rats [3]; Table 1, 0.1 mg/kg BW",154.0 ± 7.8 mg/100 g BW
same,Change of body weight,ovariectomised rats [3]; [8],3 ± 4 g
same,Femur weight index (ash femur weight/wet femur weight),ovariectomised rats [3]; [8],0.436 ± 0.004
same,Serum cholesterol,ovariectomised rats [3]; [8],45.5 ± 2.1 mg/dL
same,Serum triglycerides,ovariectomised rats [3]; [8],129.8 ± 14.5 mg/dL
same,Uterus weight index,ovariectomised rats [3]; [8],164 ± 11 mg/100 g BW
"CC(=O)Oc1ccc2c(c1)OC[C@H]1[C@@H]2CC[C@]2(C)C(=O)CC[C@@H]12 [compound IV, 6-Oxa-8α-estrone acetate]",Change of body weight,ovariectomised rats [3]; [9],45.5 ± 3.8 g
same,Femur weight index (ash femur weight/wet femur weigh),ovariectomised rats [3]; [9],0.4219 ± 0.005 mg/mg
same,Serum cholesterol,ovariectomised rats [3]; [9],51.9 ± 1.7 mg/dL
same,Uterus weight index,ovariectomised rats [3]; [9],71.8 ± 3.6 mg/100 g BW
"COc1ccc2c(c1)O[C@H](C)[C@H]1[C@@H]2CC[C@]2(C)C(=O)CCC[C@@H]12 [compound XIV, 7β-Methyl-D-homo-6-oxa-8α-estrone methyl ether]",Change of body weight,ovariectomised rats [3]; [10],51 ± 4 g
same,Femur weight index (ash femur weight/wet femur weight),ovariectomised rats [3]; [10],0.392 ± 0.004
same,Serum cholesterol,ovariectomised rats [3]; [10],54.5 ± 2.8 mg/dL
same,Serum triglycerides,ovariectomised rats [3]; [10],62.2 ± 5.2 mg/dL
same,Uterus weight index,ovariectomised rats [3]; [10],34 ± 2 mg/100 g BW
C[C@H]1Oc2cc(O)ccc2[C@H]2CC[C@]3(C)C(=O)CCC[C@H]3[C@H]21 [compound XV],Change of body weight,ovariectomised rats [3]; [10],48 ± 4 g
same,Femur weight index (ash femur weight/wet femur weight),ovariectomised rats [3]; [10],0.390 ± 0.004
same,Serum cholesterol,ovariectomised rats [3]; [10],52.2 ± 2.6 mg/dL
same,Uterus weight index,ovariectomised rats [3]; [10],33 ± 3 mg/100 g BW
same,content of antibody-forming cells,[4],does not influence
same,mass and number of cells in spleen,[4],does not influence
same,mass and number of cells in the thymus,[4],does not influence
